Measured values from patent publication US20230042936A1, “PYRIDO[2,3-d]PYRIMIDIN-7(8H)-ONES AS CDK INHIBITORS” (PROSENESTAR LLC, priority 2020, published 2023).
Where two headings read alike, the source gives them in different places.

Columns and labels:
CDK3/CycE1 = CDK3/CycE1 (Homo sapiens, UniProt Q00526); assay: Kinase profiling; type: biochemical; details: 10 semi-logarithmic dilutions from 50 μM, singlicate
CDK1/CycB1 = CDK1/CycB1 (Homo sapiens, UniProt P06493); assay: Kinase profiling; type: biochemical
[1] = tested on: MDA-MB-231 breast carcinoma cell line; assay: Proliferation assay: determination of GI50; type: cell-based, human
Procedure: (§1) The following human tumor cell lines, all Retinoblastoma (Rb)-proficient, were used in this study: MDA-MB231 (breast cancer), MDA-MB453 (breast cancer), U87MG (glioblastoma) and H460 (lung cancer). MDA-MB468 (breast cancer) and SW1783 (glioblastoma) Rb-deficient cells were also included in the study, as well as the MCF10A non-transformed mammary epithelial cell line. Tumor cell lines were maintained in DMEM or RPMI-1640 medium, depending on the cell line, supplemented with 10% FBS. MCF10A cells were grown in complete mammary epithelial growth medium (MEGM, Lonza). Cell lines were authenticated by short tandem repeat (STR) loci profiling with the GenePrint® 10 System (Promega).
(§2) All human cancer cell lines (Table 2) were obtained from the American Type Culture Collection, and were maintained in DMEM (Hyclone) or RPMI-1640 medium (Sigma) supplemented with 10% fetal bovine serum (Sigma). Non-transformed MCF10 cell line was maintained in MEGM Mammary Epithelial Cell Growth Medium (Lonza). Immortalized mouse embryonic fibroblasts (MEFs) were maintained in DMEM with 10% fetal bovine serum.
(§3) 48 h later cells were fixed with PFA 4% for 15 minutes, stained with 10 μg/ml Hoechst 33342 (Molecular Probes, Thermo Fisher) for 30 minutes and washed twice with PBS. Cells were imaged in a high content screening system (Opera Phoenix™, Perkin Elmer) using a 20× dry objective (30 fields/well). Cell counts were determined by the Opera software (Perkin Elmer) and data were further processed with SPSS software. GI50 was calculated by estimating the absolute IC50 using dose-response inhibition tool in Prism6 (Graphpad Software Inc.).

[2] = tested on: H460 lung carcinoma cell line; assay: Proliferation assay: determination of GI50; type: cell-based, human; details: Table 3, 48 h, n = 2 independent experiments
Procedure: as §1, §2, §3

[3] = tested on: MCF10 non-transformed mammary epithelial cell line; assay: Proliferation assay: determination of GI50; type: cell-based, human; details: Table 3, 48 h, n = 2 independent experiments
Procedure: as §1, §2, §3

[4] = tested on: U87MG glioblastoma cell line; assay: Proliferation assay: determination of GI50; type: cell-based, human
Procedure: as §1, §2, §3

ERK1 = ERK1 (Homo sapiens, UniProt P27361); assay: Kinase profiling; type: biochemical; details: 10 semi-logarithmic dilutions from 50 μM, singlicate
CDK6/CycD3 = CDK6/CycD3 (Homo sapiens, UniProt Q00534); assay: Kinase profiling; type: biochemical; details: 10 semi-logarithmic dilutions from 50 μM, singlicate
Chain of CDK6/CycD3 (Q00534 whole entry, the tested form may be a part): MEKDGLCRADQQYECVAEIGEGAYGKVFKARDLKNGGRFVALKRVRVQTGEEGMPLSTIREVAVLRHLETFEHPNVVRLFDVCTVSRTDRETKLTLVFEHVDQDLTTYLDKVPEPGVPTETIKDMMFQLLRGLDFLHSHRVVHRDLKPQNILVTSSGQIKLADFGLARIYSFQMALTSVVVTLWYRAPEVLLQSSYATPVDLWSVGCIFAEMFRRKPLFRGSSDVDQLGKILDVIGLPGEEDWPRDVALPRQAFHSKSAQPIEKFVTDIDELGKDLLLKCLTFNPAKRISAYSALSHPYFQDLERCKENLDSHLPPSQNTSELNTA
Chain of CDK6/CycD3 (P30281 whole entry partner, the tested form may be a part): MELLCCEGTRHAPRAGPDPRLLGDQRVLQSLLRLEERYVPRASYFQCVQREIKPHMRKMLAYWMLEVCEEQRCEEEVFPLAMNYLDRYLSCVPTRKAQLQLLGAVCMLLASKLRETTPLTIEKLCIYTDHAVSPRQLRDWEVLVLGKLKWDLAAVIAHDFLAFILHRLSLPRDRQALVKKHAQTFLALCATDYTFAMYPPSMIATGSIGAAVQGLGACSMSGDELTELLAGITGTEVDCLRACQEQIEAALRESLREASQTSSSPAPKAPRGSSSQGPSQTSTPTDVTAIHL

AKT1 aa1-480 = molecular target: T1, AKT1 aa1-480 (Homo sapiens, UniProt P31749); assay: Kinase profiling; type: biochemical; details: 10 semi-logarithmic dilutions from 50 μM, singlicate
T1 construct: AKT1 aa1-480

DYRK2 = molecular target: T2, DYRK2 (Homo sapiens, UniProt Q92630); assay: Kinase profiling; type: biochemical; details: 10 semi-logarithmic dilutions from 50 μM, singlicate; read-out: IC50 DYRK2
T2 sequence (Q92630 1-601): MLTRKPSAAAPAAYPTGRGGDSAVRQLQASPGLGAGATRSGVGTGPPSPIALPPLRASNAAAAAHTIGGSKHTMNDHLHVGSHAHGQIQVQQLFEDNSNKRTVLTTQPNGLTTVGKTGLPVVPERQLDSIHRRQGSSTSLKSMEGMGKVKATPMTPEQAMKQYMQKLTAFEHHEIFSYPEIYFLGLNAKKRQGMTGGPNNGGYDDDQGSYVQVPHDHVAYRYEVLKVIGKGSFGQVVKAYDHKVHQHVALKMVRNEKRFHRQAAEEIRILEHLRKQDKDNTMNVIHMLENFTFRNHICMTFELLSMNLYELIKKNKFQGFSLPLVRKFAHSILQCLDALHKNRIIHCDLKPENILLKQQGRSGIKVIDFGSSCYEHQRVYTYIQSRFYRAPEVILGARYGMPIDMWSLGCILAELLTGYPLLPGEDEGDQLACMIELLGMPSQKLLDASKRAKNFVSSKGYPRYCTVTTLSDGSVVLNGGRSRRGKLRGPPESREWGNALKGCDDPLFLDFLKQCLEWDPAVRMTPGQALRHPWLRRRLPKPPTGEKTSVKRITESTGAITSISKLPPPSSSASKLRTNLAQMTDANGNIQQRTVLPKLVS

CDK9/CycT1 = CDK9/CycT1 (Homo sapiens, UniProt P50750); assay: Kinase profiling; type: biochemical; details: 10 semi-logarithmic dilutions from 50 μM, singlicate
CDK6/CycD1 = CDK6/CycD1 (Homo sapiens, UniProt Q00534); assay: Kinase profiling; type: biochemical; details: 10 semi-logarithmic dilutions from 50 μM, singlicate
CDK9/CycK = CDK9/CycK (Homo sapiens, UniProt P50750); assay: Kinase profiling; type: biochemical; details: 10 semi-logarithmic dilutions from 50 μM, singlicate
Chain of CDK9/CycK (P50750 whole entry): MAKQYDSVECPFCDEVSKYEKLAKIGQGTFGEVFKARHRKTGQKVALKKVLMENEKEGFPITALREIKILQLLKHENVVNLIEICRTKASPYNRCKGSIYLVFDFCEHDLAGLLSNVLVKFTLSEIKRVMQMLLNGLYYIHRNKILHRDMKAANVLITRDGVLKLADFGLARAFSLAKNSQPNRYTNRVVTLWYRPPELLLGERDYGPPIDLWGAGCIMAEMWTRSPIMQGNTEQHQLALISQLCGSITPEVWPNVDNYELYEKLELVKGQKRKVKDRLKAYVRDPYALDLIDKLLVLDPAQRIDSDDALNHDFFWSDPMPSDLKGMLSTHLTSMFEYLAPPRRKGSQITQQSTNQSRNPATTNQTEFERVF
Chain of CDK9/CycK (O75909 whole entry partner): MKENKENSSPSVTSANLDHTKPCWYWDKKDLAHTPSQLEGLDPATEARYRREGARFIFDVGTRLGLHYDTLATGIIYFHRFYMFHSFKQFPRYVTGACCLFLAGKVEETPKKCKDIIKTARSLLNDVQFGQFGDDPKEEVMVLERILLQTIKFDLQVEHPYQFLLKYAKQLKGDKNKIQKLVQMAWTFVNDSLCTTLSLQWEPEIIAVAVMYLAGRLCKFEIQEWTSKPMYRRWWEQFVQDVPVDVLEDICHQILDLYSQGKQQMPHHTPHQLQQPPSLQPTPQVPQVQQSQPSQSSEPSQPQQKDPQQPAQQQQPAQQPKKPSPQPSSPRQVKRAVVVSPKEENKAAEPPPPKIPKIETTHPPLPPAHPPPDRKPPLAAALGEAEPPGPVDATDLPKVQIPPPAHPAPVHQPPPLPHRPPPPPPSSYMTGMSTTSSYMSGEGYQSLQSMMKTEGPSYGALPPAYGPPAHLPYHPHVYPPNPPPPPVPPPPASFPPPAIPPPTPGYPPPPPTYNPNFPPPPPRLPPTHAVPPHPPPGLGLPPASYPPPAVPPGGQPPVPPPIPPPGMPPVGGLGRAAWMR

PCTAIRE1/CycY = PCTAIRE1/CycY (Homo sapiens, UniProt Q00536); assay: Kinase profiling; type: biochemical; details: 10 semi-logarithmic dilutions from 50 μM, singlicate
CDK5/p35NCK = CDK5/p35NCK (Homo sapiens, UniProt Q00535); assay: Kinase profiling; type: biochemical
Chain of CDK5/p35NCK (Q00535 whole entry): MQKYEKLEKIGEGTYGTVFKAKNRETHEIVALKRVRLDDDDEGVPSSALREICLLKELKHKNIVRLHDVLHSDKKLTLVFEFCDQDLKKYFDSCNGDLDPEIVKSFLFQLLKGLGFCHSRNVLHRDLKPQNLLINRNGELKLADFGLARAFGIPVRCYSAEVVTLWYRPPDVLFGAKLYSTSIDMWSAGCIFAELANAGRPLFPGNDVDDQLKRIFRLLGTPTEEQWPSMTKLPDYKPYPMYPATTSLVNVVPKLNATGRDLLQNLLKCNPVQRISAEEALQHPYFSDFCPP
Chain of CDK5/p35NCK (Q15078 whole entry partner): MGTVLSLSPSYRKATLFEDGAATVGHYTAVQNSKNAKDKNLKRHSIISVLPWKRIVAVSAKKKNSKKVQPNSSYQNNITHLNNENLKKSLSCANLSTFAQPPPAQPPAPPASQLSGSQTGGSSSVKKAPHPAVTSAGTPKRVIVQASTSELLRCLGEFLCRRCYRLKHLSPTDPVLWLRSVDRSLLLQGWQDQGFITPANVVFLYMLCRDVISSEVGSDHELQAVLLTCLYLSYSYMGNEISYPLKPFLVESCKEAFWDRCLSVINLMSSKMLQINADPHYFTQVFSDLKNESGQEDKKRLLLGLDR

CDK12wt/CycK = CDK12wt/CycK (Homo sapiens, UniProt Q9NYV4); assay: Kinase profiling; type: biochemical; details: 10 semi-logarithmic dilutions from 50 μM, singlicate
Chain of CDK12wt/CycK (Q9NYV4 whole entry): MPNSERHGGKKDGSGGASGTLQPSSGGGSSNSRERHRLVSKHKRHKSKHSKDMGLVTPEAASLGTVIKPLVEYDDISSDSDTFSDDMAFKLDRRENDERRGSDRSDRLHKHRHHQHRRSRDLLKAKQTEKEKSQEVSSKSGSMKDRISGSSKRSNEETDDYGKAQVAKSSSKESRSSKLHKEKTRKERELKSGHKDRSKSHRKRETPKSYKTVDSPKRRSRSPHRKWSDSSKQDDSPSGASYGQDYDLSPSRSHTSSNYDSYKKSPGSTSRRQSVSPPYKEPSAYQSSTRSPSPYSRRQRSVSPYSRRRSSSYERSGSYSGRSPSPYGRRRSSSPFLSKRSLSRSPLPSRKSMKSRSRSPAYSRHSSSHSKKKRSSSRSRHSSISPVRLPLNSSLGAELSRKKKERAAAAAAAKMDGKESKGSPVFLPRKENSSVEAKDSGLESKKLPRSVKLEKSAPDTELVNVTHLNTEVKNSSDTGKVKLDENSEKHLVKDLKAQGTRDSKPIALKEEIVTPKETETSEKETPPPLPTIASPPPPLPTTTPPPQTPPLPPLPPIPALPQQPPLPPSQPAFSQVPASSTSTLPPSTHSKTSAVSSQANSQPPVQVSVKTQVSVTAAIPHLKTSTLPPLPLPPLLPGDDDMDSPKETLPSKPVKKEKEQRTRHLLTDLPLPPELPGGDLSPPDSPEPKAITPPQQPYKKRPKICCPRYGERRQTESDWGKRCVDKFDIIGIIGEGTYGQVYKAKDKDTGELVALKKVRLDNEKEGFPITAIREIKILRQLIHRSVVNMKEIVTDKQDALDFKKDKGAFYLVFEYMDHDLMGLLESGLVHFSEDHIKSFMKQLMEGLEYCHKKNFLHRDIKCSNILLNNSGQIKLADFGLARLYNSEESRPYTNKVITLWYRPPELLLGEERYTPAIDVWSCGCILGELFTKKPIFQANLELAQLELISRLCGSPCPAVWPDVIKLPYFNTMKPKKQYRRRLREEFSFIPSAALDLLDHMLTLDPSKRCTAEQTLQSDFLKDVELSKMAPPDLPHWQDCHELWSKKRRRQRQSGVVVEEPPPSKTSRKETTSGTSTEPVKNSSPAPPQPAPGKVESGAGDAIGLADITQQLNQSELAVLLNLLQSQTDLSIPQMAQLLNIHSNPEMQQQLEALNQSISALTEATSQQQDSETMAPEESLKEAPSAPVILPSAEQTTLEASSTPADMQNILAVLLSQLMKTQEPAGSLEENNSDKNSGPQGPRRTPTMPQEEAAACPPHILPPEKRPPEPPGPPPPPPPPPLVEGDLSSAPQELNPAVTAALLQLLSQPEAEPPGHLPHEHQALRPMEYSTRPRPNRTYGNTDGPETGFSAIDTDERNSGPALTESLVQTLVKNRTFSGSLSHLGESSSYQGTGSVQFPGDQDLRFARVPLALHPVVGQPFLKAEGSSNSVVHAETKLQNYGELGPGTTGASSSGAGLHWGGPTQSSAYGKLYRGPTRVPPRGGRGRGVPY
Chain of CDK12wt/CycK (O75909 whole entry partner): as the sequence (O75909 whole entry partner) above

CDK2/CycE1 = CDK2/CycE1 (Homo sapiens, UniProt P24941); assay: Kinase profiling; type: biochemical
CDK1/CycE1 = CDK1/CycE1 (Homo sapiens, UniProt P06493); assay: Kinase profiling; type: biochemical
CDC7/DBF4 = CDC7/DBF4 (Homo sapiens, UniProt O00311); assay: Kinase profiling; type: biochemical; details: 10 semi-logarithmic dilutions from 50 μM, singlicate; read-out: IC50 CDC7/DBF4
Chain of CDC7/DBF4 (O00311 whole entry): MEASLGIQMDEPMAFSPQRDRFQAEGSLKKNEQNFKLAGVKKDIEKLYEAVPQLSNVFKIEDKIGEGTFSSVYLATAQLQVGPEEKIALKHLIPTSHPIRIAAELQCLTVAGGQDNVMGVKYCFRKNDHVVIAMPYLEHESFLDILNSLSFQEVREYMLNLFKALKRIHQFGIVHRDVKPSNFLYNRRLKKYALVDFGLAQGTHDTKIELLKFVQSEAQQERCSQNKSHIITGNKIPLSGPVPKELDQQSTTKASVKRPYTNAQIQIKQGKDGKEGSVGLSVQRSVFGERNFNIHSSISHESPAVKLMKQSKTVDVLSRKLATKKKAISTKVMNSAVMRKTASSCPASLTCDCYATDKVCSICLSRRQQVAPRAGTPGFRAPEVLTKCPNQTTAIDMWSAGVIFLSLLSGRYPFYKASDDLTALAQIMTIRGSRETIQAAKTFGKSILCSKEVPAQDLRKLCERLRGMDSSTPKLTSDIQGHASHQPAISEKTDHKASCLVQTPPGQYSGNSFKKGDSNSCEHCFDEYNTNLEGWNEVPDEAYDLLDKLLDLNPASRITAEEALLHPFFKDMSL
Chain of CDC7/DBF4 (Q9UBU7 whole entry partner): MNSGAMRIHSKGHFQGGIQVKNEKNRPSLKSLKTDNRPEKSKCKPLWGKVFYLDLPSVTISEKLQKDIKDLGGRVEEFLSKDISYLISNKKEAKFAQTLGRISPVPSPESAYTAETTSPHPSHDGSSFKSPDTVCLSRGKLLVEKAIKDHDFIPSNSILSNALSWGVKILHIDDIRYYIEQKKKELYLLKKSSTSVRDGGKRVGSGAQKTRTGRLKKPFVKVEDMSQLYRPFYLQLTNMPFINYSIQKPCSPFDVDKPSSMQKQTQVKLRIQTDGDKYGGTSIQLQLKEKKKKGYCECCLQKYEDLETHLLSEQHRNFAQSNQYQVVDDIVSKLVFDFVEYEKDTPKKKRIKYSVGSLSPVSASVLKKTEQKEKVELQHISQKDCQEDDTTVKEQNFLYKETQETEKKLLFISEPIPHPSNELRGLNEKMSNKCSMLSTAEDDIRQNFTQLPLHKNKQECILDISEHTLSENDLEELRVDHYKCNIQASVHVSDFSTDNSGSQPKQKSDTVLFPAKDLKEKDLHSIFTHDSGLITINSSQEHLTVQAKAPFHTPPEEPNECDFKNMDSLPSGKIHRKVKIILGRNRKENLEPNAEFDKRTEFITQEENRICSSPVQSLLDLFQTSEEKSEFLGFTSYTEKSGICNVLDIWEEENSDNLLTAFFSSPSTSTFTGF

DYRK1A = DYRK1A (Homo sapiens, UniProt Q13627); assay: Kinase profiling; type: biochemical; details: 10 semi-logarithmic dilutions from 50 μM, singlicate
[5] = molecular target: panel of 27 kinases (CDK family members); assay: Kinase profiling, results in words; type: biochemical; details: from Table 1
[6] = 10 semi-logarithmic dilutions from 50 μM, singlicate
[7] = Homo sapiens, MDA-MB-231, Table 3, 48 h, n = 3 independent experiments, read-out: GI50 MDA-MB231
[8] = Homo sapiens, U-87 MG, Table 3, 48 h, n = 3 independent experiments, read-out: GI50 U87MG

| IC50 (CDK3/CycE1) [µM] | IC50 (ERK1) [µM] | IC50 (CDK6/CycD3) [µM] | IC50 (AKT1 aa1-480) [µM] | IC50 (DYRK2) [µM] | IC50 (CDK9/CycT1) [µM] | IC50 (CDK6/CycD1) [µM] | IC50 (CDK9/CycK) [µM] | IC50 (PCTAIRE1/CycY) [µM] | IC50 (CDK12wt/CycK) [µM] | IC50 (CDC7/DBF4) [µM] | IC50 (DYRK1A) [µM] | IC50 (CDK1/CycB1; [6]) [µM] | GI50 [1, 7] [µM] | GI50 ([2]; Homo sapiens, NCI-H460) [µM] | GI50 [4, 8] [µM] | IC50 (CDK5/p35NCK; [6]) [µM] | IC50 (CDK2/CycE1; [6]) [µM] | IC50 (CDK1/CycE1; [6]) [µM] | Compound | GI50 ([3]; Homo sapiens, MCF10) [µM] | also measured |
| --- | --- | --- | --- | --- | --- | --- | --- | --- | --- | --- | --- | --- | --- | --- | --- | --- | --- | --- | --- | --- | --- |
| 17.2 | 47.5 | 12.6 | > 50 | > 50 | 8.07 | 0.485 | 7.05 | > 50 | 28.4 | 14.6 | > 50 | 42.1 | 35.2 | 18 | > 50 | 38.6 | 7.29 | 14.6 | O=c1ccc2cnc(Nc3ccc(N4CCC(CCCO)CC4)cc3F)nc2n1[C@@H]1CC2CCC1C2 (stereo partly drawn) [PS002, 8-((2R)-bicyclo[2.2.1]heptan-2-yl)-2-((2-fluoro-4-(4-(3-hydroxypropyl)piperidin-1-yl)phenyl)amino)pyrido[2,3-d]pyrimidin-7(8H)-one] | 34.6 |  |
| 1.13 | > 50 | 0.623 | > 50 | > 50 | 0.918 | 0.0732 | 0.456 | 43.8 | 3.18 | 7.61 | > 50 | 4.69 | 3.9 | 1.6 | 4.1 | 1.92 | 0.545 | 2.97 | O=c1ccc2cnc(Nc3ccc(N4CCC(CCCO)CC4)c(F)c3)nc2n1[C@@H]1CC2CCC1C2 (stereo partly drawn) [PS003, 8-((2R)-bicyclo[2.2.1]heptan-2-yl)-2-((3-fluoro-4-(4-(3-hydroxypropyl)piperidin-1-yl)phenyl)amino)pyrido[2,3-d]pyrimidin-7(8H)-one] | 7.5 |  |
| 0.0272 | 4.53 | 0.0169 | > 50 | 4.72 | 0.0214 | < 0.0015 | 0.0101 | 0.00769 | 0.0308 | 1.53 | 1.38 | 0.0407 | 0.14 | 0.13 | 0.05 | 0.0347 | 0.0172 | 0.173 | CC(O)CCN1CCN(c2ccc(Nc3ncc4ccc(=O)n([C@@H]5CC6CCC5C6)c4n3)cc2)CC1 (stereo partly drawn) [PS005, 8-((2R)-bicyclo[2.2.1]heptan-2-yl)-2-((4-(4-(3-hydroxybutyl)piperazin-1-yl)phenyl)amino)pyrido[2,3-d]pyrimidin-7(8H)-one] | 0.05 | kinase affinity profile [5]: bind many other CDK family members |

| Compound | IC50 (CDK3/CycE1) [µM] | IC50 (ERK1) [µM] | IC50 (CDK6/CycD3) [µM] | IC50 (AKT1 aa1-480) [µM] | IC50 (DYRK2) [µM] | IC50 (CDK9/CycT1) [µM] | IC50 (CDK6/CycD1) [µM] | IC50 (CDK9/CycK) [µM] | IC50 (PCTAIRE1/CycY) [µM] | IC50 (CDK12wt/CycK) [µM] | IC50 (CDC7/DBF4) [µM] | IC50 (DYRK1A) [µM] | IC50 (CDK1/CycB1; [6]) [µM] | GI50 [1, 7] [µM] | GI50 ([2]; Homo sapiens, NCI-H460) [µM] | GI50 [4, 8] [µM] | IC50 (CDK5/p35NCK; [6]) [µM] | IC50 (CDK2/CycE1; [6]) [µM] | IC50 (CDK1/CycE1; [6]) [µM] | GI50 ([3]; Homo sapiens, MCF10) [µM] | also measured |
| --- | --- | --- | --- | --- | --- | --- | --- | --- | --- | --- | --- | --- | --- | --- | --- | --- | --- | --- | --- | --- | --- |
| O=c1ccc2cnc(Nc3ccc(N4CCC(CCCO)CC4)cc3)nc2n1C1CC2CCC1C2 (centres unmarked) [PD-0183812, reference compound] | 0.885 | 29.6 | 0.301 | 48 | > 50 | 0.484 | 0.0199 | 0.174 | 43.5 | 3.16 | 18.8 | 31.9 |  |  |  |  |  |  |  |  | IC50 (CDK1/CycB1): 32.1 µM; GI50 ([1]; Table 3, 48 h, n = 3 independent experiments, read-out: GI50 MDA-MB231): 2.15 µM; GI50 [2]: 1.57 µM; GI50 [3]: 3.3 µM; GI50 ([4]; Table 3, 48 h, n = 3 independent experiments, read-out: GI50 U87MG): 7.45 µM; IC50 (CDK5/p35NCK): 1.84 µM; IC50 (CDK2/CycE1): 0.122 µM; IC50 (CDK1/CycE1): 8.09 µM |
| CC(O)CCC1CCN(c2ccc(Nc3ncc4ccc(=O)n([C@@H]5CC6CCC5C6)c4n3)cc2)CC1 (stereo partly drawn) [PS004, 8-((2R)-bicyclo[2.2.1]heptan-2-yl)-2-((4-(4-(3-hydroxybutyl)piperidin-1-yl)phenyl)amino)pyrido[2,3-d]pyrimidin-7(8H)-one] | 0.654 | 37.8 | 0.442 | > 50 | 40.5 | 0.264 | 0.0274 | 0.141 | 13.5 | 0.923 | 9.9 | > 50 | 16.4 | 3.6 | 1.4 | 4.5 | 1.67 | 0.303 | 3.32 | 1.43 | GI50 ([1]; Homo sapiens, MDA-MB-231, Table 4, n = 4, read-out: Growth inhibition GI50, Breast cancer pRB Wild-Type MDA-MB-231): 3.5 µM; GI50 ([4]; Homo sapiens, U-87 MG, Table 4, n = 4, read-out: Growth inhibition GI50, Glioblastoma pRB Wild-Type U87MG): 5.5 µM; kinase affinity profile [5]: affinity not only for CDK4/6 but also for CDK2/9 |
